Experimental data from patent US20110201815A1, “FUSED HETEROCYCLIC DERIVATIVE AND USE THEREOF FOR MEDICAL PURPOSES” (KISSEI PHARMACEUTICAL CO., LTD., priority 2008, published 2011).

Molecular target: T1, human URAT1 (Homo sapiens, UniProt Q96S37)
T1 construct: expressed in transfected cells; host or cells: COS7 cells (RIKEN CELL BANK RCB0539), transient transfection with pcDNA3.1
T1 sequence (Q96S37 1-553): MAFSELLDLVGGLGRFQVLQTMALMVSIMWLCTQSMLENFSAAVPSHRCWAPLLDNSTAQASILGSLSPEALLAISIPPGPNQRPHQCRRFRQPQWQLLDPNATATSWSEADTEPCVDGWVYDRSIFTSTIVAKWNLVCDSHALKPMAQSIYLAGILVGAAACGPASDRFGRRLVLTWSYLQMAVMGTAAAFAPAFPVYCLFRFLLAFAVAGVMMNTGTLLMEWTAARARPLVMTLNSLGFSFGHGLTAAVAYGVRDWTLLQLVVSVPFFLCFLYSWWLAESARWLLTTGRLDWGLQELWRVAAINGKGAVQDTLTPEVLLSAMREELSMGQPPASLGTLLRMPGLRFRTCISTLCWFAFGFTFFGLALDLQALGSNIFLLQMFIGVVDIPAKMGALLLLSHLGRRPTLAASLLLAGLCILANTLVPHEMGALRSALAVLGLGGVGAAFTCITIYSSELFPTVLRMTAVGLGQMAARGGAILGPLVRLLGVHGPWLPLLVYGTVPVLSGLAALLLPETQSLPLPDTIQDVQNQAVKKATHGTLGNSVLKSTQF
Assay: Inhibitory activity of uric acid transport with human URAT1 expressing cells
Type: cell-based
Details: COS-7; concentration of 100 μM; 14C-uric acid uptake in COS7 cells transiently expressing human URAT1, 20 μM uric acid, 5 minutes; read-out: Percent inhibition
Experimental: Full length human URAT1 cDNA (NCBI Accession No. NM_144585) was subcloned into expression vector, pcDNA3.1 (Invitrogen). Human URAT1 expression vector was transfected into COS7 cells (RIKEN CELL BANK RCB0539) using Lipofectamine 2000 (Invitrogen). COS7 cells were seeded in collagen-coated 24 well plates (Japan Becton Dickinson) at 90-95% confluency and cultured in D-MEM culture medium (Invitrogen) containing 10% fetal bovine serum (Sanko Junyaku) for 2 hours at 37° C. under the condition of 5% CO2. For 1 well, 2 μL of Lipofectamine 2000 was diluted in 50 μL of OPTI-MEM (Invitrogen) and allowed to stand at room temperature for 7 minutes (hereinafter referred to as Lipo2000-OPTI). For 1 well, 0.8 μg of human URAT1 expression vector was diluted in 50 μL of OPTI-MEM (Invitrogen) and combined gently with Lipo2000-OPTI. After standing at room temperature for 25 minutes, the mixture was added to COS7 cells at 100 μL/well. […]
All tests were performed on hot-plate at 37° C. […] After mixing, the radioactivity was counted in a liquid scintillation counter (PerkinElmer). The radioactivity in COS7 cells not transfected with URAT1 expression vector was also counted under the same condition as control. […]
A: Radioactivity in control B: Radioactivity in the case of addition of test compounds C: Radioactivity in COS7 cells not transfected with URAT1 expression vector

inhibition at 100 µM	Compound
> 80%	Cn1ccc2cc(-c3cc(C(=O)O)ccn3)cc([N+](=O)[O-])c21 [Example 2, 2-(1-Methyl-7-nitro-1H-indole-5-yl) isonicotinic acid]

Molecular target: T2, Xanthine oxidase (from bovine milk, Sigma) (Bos taurus, UniProt P80457)
T2 construct: Xanthine oxidase (from bovine milk, Sigma); purchased Sigma; host or cells: bovine milk
Assay: Xanthine oxidase inhibitory activity
Type: biochemical
Details: xanthine 200 μM added, 10 minutes at room temperature, absorbance at 290 nm
Experimental: Test compounds were dissolved in DMSO (Wako) at 40 mM concentration and then diluted to intended concentrations with phosphate-buffered saline (PBS).
Xanthine oxidase (from bovine milk, Sigma) was prepared with phosphate-buffered saline (PBS) at 0.02 units/mL, and then the solution was added to 96 well plates at 50 μL/well. In addition, test compounds diluted with PBS were added at 50 μL/well. Xanthine (Wako) at 200 μM prepared with PBS was added at 100 μL/well, and the reaction was measured for 10 minutes at room temperature. […] The absorbance under a condition without xanthine is 0%, and control without test compounds is 100%. Fifty % inhibitory concentration (IC50) of test compounds was calculated (Table 5). Ex. No in the table indicates example number.

T2 sequence (P80457 whole entry): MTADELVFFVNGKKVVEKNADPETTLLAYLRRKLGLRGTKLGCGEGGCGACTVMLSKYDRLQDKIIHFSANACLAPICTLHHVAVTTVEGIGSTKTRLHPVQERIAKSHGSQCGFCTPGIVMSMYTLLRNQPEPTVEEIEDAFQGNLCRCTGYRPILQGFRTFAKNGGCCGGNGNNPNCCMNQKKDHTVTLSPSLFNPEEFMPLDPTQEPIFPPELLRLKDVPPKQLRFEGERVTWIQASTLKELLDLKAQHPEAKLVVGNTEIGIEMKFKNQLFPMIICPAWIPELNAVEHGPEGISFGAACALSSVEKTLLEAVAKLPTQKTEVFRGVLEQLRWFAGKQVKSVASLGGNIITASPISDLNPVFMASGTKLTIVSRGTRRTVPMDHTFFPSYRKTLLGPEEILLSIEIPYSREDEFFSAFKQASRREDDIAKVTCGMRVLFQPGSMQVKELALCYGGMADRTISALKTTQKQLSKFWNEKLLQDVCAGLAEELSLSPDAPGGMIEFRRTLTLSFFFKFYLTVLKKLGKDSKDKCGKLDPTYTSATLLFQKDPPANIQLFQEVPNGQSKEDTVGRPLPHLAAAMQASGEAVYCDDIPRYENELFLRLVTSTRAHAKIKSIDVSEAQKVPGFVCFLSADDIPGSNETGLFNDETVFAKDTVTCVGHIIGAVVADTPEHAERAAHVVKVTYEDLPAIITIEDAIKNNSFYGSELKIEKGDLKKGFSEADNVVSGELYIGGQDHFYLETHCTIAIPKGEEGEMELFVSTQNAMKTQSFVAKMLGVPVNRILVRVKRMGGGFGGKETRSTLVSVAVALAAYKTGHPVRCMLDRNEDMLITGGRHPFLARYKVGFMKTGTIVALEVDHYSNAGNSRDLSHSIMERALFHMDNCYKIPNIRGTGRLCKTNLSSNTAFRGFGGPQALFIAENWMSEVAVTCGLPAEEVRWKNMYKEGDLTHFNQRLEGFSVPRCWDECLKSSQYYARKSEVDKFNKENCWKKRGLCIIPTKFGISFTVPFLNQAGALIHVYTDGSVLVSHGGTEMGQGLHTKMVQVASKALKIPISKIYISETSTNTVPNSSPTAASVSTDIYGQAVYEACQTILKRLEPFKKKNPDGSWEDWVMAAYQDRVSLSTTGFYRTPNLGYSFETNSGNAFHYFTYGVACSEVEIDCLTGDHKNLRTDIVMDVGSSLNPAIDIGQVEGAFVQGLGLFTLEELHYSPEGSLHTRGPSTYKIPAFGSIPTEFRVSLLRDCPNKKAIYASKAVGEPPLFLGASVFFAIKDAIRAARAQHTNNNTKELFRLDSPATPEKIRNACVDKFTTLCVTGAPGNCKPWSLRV

Compound	IC50
Cc1nc(-c2cc(C#N)c3c(c2)c(C)cn3C)sc1C(=O)O [Example 1, 2-(7-Cyano-1,3-dimethyl-1H-indole-5-yl)-4-methylthiazole-5-carboxylic acid]	19 nM
Cn1ccc2cc(-c3cc(C(=O)O)ccn3)cc([N+](=O)[O-])c21 [Example 2, 2-(1-Methyl-7-nitro-1H-indole-5-yl) isonicotinic acid]	48 nM
O=C(O)c1ccnc(-c2cc([N+](=O)[O-])c3occc3c2)c1 [Example 4, 2-(7-Nitrobenzofuran-5-yl) isonicotinic acid]	254 nM
Cc1nc(-c2cc(C#N)c3c(c2)c(C)cn3CC(C)C)sc1C(=O)O [Example 7]	31 nM
Cc1nc(-c2cc(C#N)c3c(c2)c(C)cn3C(C)C)sc1C(=O)O [Example 8]	10 nM
CC(C)Cn1ccc2cc(-c3cc(C(=O)O)ccn3)cc([N+](=O)[O-])c21 [Example 9]	13 nM
Cc1nc(-c2cc(C#N)c3[nH]ccc3c2)sc1C(=O)O [Example 13]	7 nM

Further lines, results first:

IC50	Compound
8 nM	Cc1nc(-c2cc([N+](=O)[O-])c3c(ccn3C)c2)sc1C(=O)O [Example 3, 4-Methyl-2-(1-methyl-7-nitro-1H-indole-5-yl) thiazole-5-carboxylic acid]
114 nM	COCCn1ccc2cc(-c3cc(C(=O)O)ccn3)cc([N+](=O)[O-])c21 [Example 10]
12 nM	N#Cc1cc(-c2cc(C(=O)O)ccn2)cc2cc[nH]c12 [Example 11, 2-(7-Cyano-1H-indole-5-yl) isonicotinic acid]
17 nM	Cn1ccc2cc(-c3cc(C(=O)O)ccn3)cc(C#N)c21 [Example 12, 2-(7-Cyano-1-methyl-1H-indole-5-yl) isonicotinic acid]
